These are literature values, as cited in patent publication US20100273829A1, “Methods for Treating Disorders Associated with Hyperlipidemia in a Mammal” (priority 2005, published 2010).

Entries after “also recorded” stand apart in the source; their conditions may differ. Where two headings read alike, the source gives them in different places.

The conditions of data set [1]: ezetimibe 10 mg/day added to maximal statin regimen (80 mg/day), hoFH patients.

With `O=C(NC1CCN(CCCCC2(C(=O)NCC(F)(F)F)c3ccccc3-c3ccccc32)CC1)c1ccccc1-c1ccc(C(F)(F)F)cc1` [BMS-201038, N-(2,2,2-Trifluorethyl)-9-[4-[4-[[[4′-(trifluoromethyl)[1,1′biphenyl]-2-Yl]carbonyl]amino]-1-piperidinyl]butyl]9H-fluorene-9-carboxamide], the adverse events entry (patients, 25 mg/day BMS-201038 monotherapy) is “gastrointestinal perturbations, abnormalities in liver function, and hepatic steatosis; also recorded: gastrointestinal disorders, abnormalities in liver function and/or hepatic steatosis”.

In the case of `O=C1[C@H](CC[C@H](O)c2ccc(F)cc2)[C@@H](c2ccc(O)cc2)N1c1ccc(F)cc1` [ezetimibe], the “total reduction of LDL-C levels” value in data set [1] is 27%.

Take `Cc1cc(C)c2c3ccccc3n(Cc3ccc([C@@H](C(=O)N[C@H](CO)c4ccccc4)C4CCCC4)cc3)c2n1` [implitapide, (2S)-2-cyclopentyl-2-[4-[(2,4-dimethyl-9H-pyrido[2,3-b]indol-9-yl)methyl]phenyl]-N-[(1S)-2-hydroxy-1-phenylethyl]ethanamide]: the therapeutic efficacy result (clinical studies, implitapide 80 mg/day or greater) is recorded as “therapeutically effective”. Further, the adverse events entry (clinical studies, implitapide 80 mg/day or greater (80 mg/day, 160 mg/day)) is “gastrointestinal disturbances, abnormalities in liver function, and hepatic steatosis; also recorded: gastrointestinal disorders, abnormalities in liver function and/or hepatic steatosis”.
